Laboratory results published in patent US7776899B2, “Methods for treatment of erectile dysfunction” (Repros Therapeutics Inc., priority 1998, dated 2010).
Structures can show the parent of a compound that is named as a salt.

Assays:
[1] = pH 7.48
Method: (§1) A 0.1 N solution of NaOH was used to adjust the pH to the indicated values. These solutions were shaken for about 10 minutes then held at room temperature overnight in order to allow maximum dissolution of drugs in the buffer. […] HPLC was performed using a C18 column having a mobile phase of buffer (5 mM NaH2PO4 and 5 mM octane sulfonic acid, pH 3) in 30% acetonitrile with a flow rate of 1.5 ml/minute. The detection wavelength was 210 nm.

physchem = conditions: thermodynamic from solid
Method: as §1

COc1ccc(Cc2nccc3cc(OC)c(OC)cc23)cc1OC [Papaverine, papaverine hydrochloride]
In Solution (solubility in mixture) [1]: 170 µg/mL
solubility (physchem; pH 3.91, aqueous buffer, In Solution (solubility in mixture)): 36800 µg/mL
solubility (physchem; pH 3.91, aqueous buffer, solubility): ~36800 µg/mL
solubility (physchem; pH 4.35, aqueous buffer, In Solution (solubility in mixture)): 7750 µg/mL
solubility (physchem; pH 5.04, aqueous buffer, In Solution (solubility in mixture)): 700 µg/mL
solubility (physchem; pH 7.48, aqueous buffer, In Solution (solubility in mixture)): ~200 µg/mL
solubility (physchem; pH 7.65, aqueous buffer, In Solution (solubility in mixture)): 200 µg/mL
